The numbers were not newly measured in patent publication US20230033410A1, “COMPLEX FORMULATION COMPRISING SITAGLIPTIN AND DAPAGLIFLOZIN, AND PREPARATION METHOD THEREFOR” (HANMI PHARM. CO.,LTD., priority 2019, published 2023), which cites them from elsewhere.

The term Tmax denotes the time from dosing to the highest level.

Like-named read-outs stand apart in the source and are kept apart here.

The conditions of the data set: plasma.

Take `CCOc1ccc(Cc2cc([C@@H]3O[C@H](CO)[C@@H](O)[C@H](O)[C@H]3O)ccc2Cl)cc1` [dapagliflozin, (2S,3R,4R,5S,6R)-2-[4-chloro-3-(4-ethoxybenzyl)phenyl]-6-(hydroxymethyl)tetrahydro-2H-pyran-3,4,5-triol]: the Tmax by setting is: (range in brackets) 1 to 2 h; (stated for both drugs) “about 1 hour”.

Regarding `N[C@@H](CC(=O)N1CCn2c(nnc2C(F)(F)F)C1)Cc1cc(F)c(F)cc1F` [sitagliptin, (R)-3-amino-1-(3-(trifluoromethyl)-5,6-dihydro-[1,2,4]triazolo[4,3-a]pyrazin-7(8H)-yl)-4-(2,4,5-trifluorophenyl)butan-1-one], the Tmax (range in brackets) is 1 to 4 h and the Tmax entry (stated for both drugs) is on record as “about 1 hour”.
